The target of one assay is T1, uterine OT receptors (Rattus norvegicus, UniProt P70536).
T1 construct: from tissue; host or cells: uterus of DES-treated rats, crude membranes
T1 sequence (P70536 1-388): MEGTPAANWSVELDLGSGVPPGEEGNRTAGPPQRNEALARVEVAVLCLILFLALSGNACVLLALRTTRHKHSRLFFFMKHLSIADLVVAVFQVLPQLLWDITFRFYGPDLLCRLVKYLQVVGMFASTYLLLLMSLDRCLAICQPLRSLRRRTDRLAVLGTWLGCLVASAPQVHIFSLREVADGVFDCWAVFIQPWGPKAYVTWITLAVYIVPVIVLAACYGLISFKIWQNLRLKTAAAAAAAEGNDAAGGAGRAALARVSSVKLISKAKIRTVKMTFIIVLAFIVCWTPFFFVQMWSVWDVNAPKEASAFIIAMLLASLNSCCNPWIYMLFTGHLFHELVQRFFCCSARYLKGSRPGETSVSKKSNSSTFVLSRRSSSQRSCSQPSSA
Kind of assay: [^3 H]OT binding to uterine OT receptors, crude membrane preparation of uteri from DES-treated rats. On the procedure:
Competition studies were conducted at equilibrium (60 minutes; 22° C.) using 1 nM [^3 H]OT in the following assay buffer: 50 mM Tris-HCl, 5 mM MgCl2, and 0.1% BSA, pH 7.4.

Another assay deals with T2, AVP-V1 sites (Rattus norvegicus, UniProt P30560).
T2 construct: crude membrane preparation of male rat liver (AVP-V1 sites); from tissue; host or cells: male rat liver, crude membranes
T2 sequence (P30560 whole entry): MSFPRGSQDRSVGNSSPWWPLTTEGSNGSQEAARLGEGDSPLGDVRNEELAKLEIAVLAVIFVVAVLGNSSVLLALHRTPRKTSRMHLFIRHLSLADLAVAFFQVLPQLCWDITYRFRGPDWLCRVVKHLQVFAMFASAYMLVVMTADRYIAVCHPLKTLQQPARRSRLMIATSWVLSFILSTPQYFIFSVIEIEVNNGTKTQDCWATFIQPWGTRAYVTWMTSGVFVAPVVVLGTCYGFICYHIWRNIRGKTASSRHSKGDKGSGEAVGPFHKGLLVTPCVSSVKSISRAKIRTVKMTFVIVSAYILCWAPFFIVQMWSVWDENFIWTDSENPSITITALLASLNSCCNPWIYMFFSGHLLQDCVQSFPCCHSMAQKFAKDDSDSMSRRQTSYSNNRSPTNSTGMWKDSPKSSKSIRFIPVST
Kind of assay: [^3 H]AVP binding to crude membrane preparation of male rat liver (AVP-V1 sites). As for the experimental part: (§1) Nonspecific binding (5-10% of the total binding) was determined using 10 μM unlabeled AVP, and the binding reaction was terminated by filtration as described above for the [^3 H]OT binding assay.

In the next assay the target is T3, AVP-V2 sites (Rattus norvegicus, UniProt Q00788).
T3 construct: male rat liver (AVP-V1 sites) or kidney medulla (AVP-V2 sites); from tissue; host or cells: male rat kidney medulla, crude membranes
T3 sequence (Q00788 whole entry): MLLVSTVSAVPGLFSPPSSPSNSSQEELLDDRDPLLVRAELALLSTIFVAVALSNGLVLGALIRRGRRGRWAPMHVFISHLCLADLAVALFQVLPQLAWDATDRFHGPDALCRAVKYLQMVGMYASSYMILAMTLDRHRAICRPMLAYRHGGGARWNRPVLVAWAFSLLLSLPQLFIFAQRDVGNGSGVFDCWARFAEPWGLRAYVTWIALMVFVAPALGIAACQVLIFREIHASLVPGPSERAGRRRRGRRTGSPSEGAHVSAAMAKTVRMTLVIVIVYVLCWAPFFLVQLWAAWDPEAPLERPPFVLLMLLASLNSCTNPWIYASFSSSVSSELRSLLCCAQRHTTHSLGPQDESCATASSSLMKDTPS
Kind of assay: [^3 H]AVP binding to crude membrane preparation of male rat kidney medulla (AVP-V2 sites). On the procedure:
as §1

Where [1] appears, read: rat uterus membranes, 1 nM [^3 H]OT, read-out: Receptor Binding Results IC50 (nM) [^3 H]OT.
Setting [2] is: read-out: Receptor Binding Results IC50 (nM) [^3 H]-AVP-V1.
[3] abbreviates: read-out: Receptor Binding Results IC50 (nM) [^3 H]-AVP-V2.
[4] abbreviates: Receptor Binding Results IC50 (nM) [^3 H]-AVP-V1.
Where [5] appears, read: rat kidney medulla membranes, 2 nM [^3 H]AVP, read-out: Receptor Binding Results IC50 (nM) [^3 H]-AVP-V2.

We go through eight compounds from patent US5225528A, “Cyclic hexapeptide oxytocin antagonists” (priority 1990, dated 1993).

Where a name gives a salt, the structure may show the parent alone. Read-outs that look alike come from different tables or passages of the source. Numbered stars: 1 amine (or outer) side, 2 acyl side, 3 side chain; on linkers, the order of the positions; unused ones are H or OH. Square brackets hold non-standard residues; d marks the D form. Peptide text beside a SMILES is read from it. * marks the point of attachment. X9 = O=C([C@@H]1CN(P(=O)(OCc2ccccc2)OCc2ccccc2)CCN1[*:1])[*:2]; dPip(4-aza,4-Cbz) = O=C(O)[C@H]1CN(C(=O)OCc2ccccc2)CCN1; dPiz(1,6-dehydro) = O=C(O)[C@H]1CCC=NN1; dNMeF = CN[C@H](Cc1ccccc1)C(=O)O; dOrn = NCCC[C@@H](N)C(=O)O; Pip = O=C(O)[C@@H]1CCCCN1; dPip = O=C(O)[C@H]1CCCCN1; Cbz = O=C(OCc1ccccc1)*

For `CC[C@H](C)[C@@H]1NC(=O)[C@@H](Cc2ccccc2)NC(=O)[C@@H]2CCCN2C(=O)[C@@H](Cc2ccccc2)NC(=O)[C@H]2CN(C(=O)OCc3ccccc3)CCN2C(=O)[C@H]2CCCCN2C1=O` [Example 76, c-[D-Phenylalanyl-L-isoleucinyl-D-pipecolyl-D-piperazin-2-yl(4-Cbz)-D-phenylalanyl-L-prolyl]] (cyclo(I[dPip][dPip(4-aza,4-Cbz)][dF]P[dF])), the half-maximal inhibitory concentration (IC50) (commonly the midpoint of a concentration-inhibition curve) at uterine OT receptors (setting [1]) turned out to be 460 nM; on AVP-V1 sites (setting [2]), 9300 nM; on AVP-V2 sites (setting [3]) it was 10600 nM.
As for “c-[D-2-Trytophanyl-L-isoleucinyl-D-pipecolyl-L-piperazin-2-yl-(4-Cbz)-D-histidinyl(BOM)-L-prolyl] [Example 175]”, the “[^3 H]OT: percent inhibition of radioligand at the given concentration” value on uterine OT receptors (@ 1,000 (nM)) was found to be 79%. Also, the “[^3 H]-AVP-V1: percent inhibition of radioligand at the given concentration” value at AVP-V1 sites (@ 10,000 (nM)) came out at 54%. For the same compound, the “[^3 H]-AVP-V2: percent inhibition of radioligand at the given concentration” value at AVP-V2 sites (@ 10,000 (nM)) was 81%.
Turning to `CC[C@H](C)[C@@H]1NC(=O)[C@@H](Cc2ccccc2)NC(=O)[C@@H]2CCCN2C(=O)[C@@H](CCCNC(=O)OCc2ccccc2)NC(=O)[C@@H]2CCCCN2C(=O)[C@H]2CCCCN2C1=O` [Example 27, Cyclo[D-phenylalanyl-L-isoleucyl-D-pipecolyl-L-pipecolyl-D-(carbobenzyloxy)-ornithyl-L-prolyl]] (cyclo(I[dPip][Pip][dOrn](Cbz)P[dF])), at uterine OT receptors (1 h, @ 1,000 (nM), read-out: [^3 H]OT: percent inhibition of radioligand at the given concentration), the inhibition at 1 µM amounted to 79%. For the same compound, the concentration for half-maximal inhibition (IC50) at AVP-V1 sites (setting [4]) and at AVP-V2 sites (setting [5]) was 10000 nM each time.
On to `CC[C@H](C)[C@@H]1NC(=O)[C@@H](Cc2c[nH]c3ccccc23)NC(=O)[C@@H]2CCCN2C(=O)[C@@H](Cc2ccccc2)N(C)C(=O)[C@@H]2CN(P(=O)(OCc3ccccc3)OCc3ccccc3)CCN2C(=O)[C@H]2CCCCN2C1=O` [Example 183, c-[D-Tryptophanyl-L-isoleucinyl-D-pipecolyl-L-piperazin-2-yl(4-dibenzylphosphoramidyl)-D-(N^α -Me)phenylalanyl-L-prolyl]] (cyclo(I[dPip][X9][dNMeF]P[dW])), for which the inhibition at 0.1 µM on uterine OT receptors (1 h, read-out: [^3 H]OT: percent inhibition of radioligand at the given concentration) worked out at 58%. At AVP-V1 sites (Receptor Binding Results IC50 (nM) [^3 H]-AVP-V1, rat liver membranes, 1 nM [^3 H]AVP), this compound registered an IC50 of more than 10000 nM. Also, on AVP-V2 sites (0.5 h, read-out: [^3 H]-AVP-V2: percent inhibition of radioligand at the given concentration), the inhibition at 10 µM was found to be 71%.
Regarding `CC[C@H](C)[C@@H]1NC(=O)[C@@H](Cc2c[nH]c3ccccc23)NC(=O)[C@@H]2CCCN2C(=O)[C@@H](Cc2cnc[nH]2)NC(=O)[C@@H]2CCCCN2C(=O)[C@H]2CCC=NN2C1=O` [Example 184, c-[D-Tryptophanyl-L-isoleucinyl-D-Δ-piperazyl-L-pipecolyl-D-histidyl-L-prolyl]] (cyclo(I[dPiz(1,6-dehydro)][Pip][dH]P[dW])), the figures for the IC50 at uterine OT receptors (Receptor Binding Results IC50 (nM) [^3 H]OT), at AVP-V1 sites (setting [2]) and on AVP-V2 sites (setting [5]) were 6 nM, 3980 nM and 1050 nM, respectively.
Turning to `CC[C@H](C)[C@@H]1NC(=O)[C@@H](Cc2ccccc2)NC(=O)[C@@H]2CCCN2C(=O)[C@@H](Cc2ccccc2)N(C)C(=O)[C@H](Cc2cnc[nH]2)NC(=O)[C@H]2CCCCN2C1=O` [Example 13] (cyclo(H[dNMeF]P[dF]I[dPip])), the results for the half-inhibitory concentration (IC50) at uterine OT receptors (setting [1]), on AVP-V1 sites (setting [4]) and at AVP-V2 sites (Receptor Binding Results IC50 (nM) [^3 H]-AVP-V2) were 150 nM, more than 1000 nM and more than 1000 nM, respectively.
Turning to `CC[C@H](C)[C@@H]1NC(=O)[C@@H](Cc2ccccc2)NC(=O)[C@@H]2CCCN2C(=O)[C@@H](Cc2ccccc2)N(C)C(=O)[C@H](CCCNC(=N)N)NC(=O)[C@H]2CCC=NN2C1=O` [Example 131, c-[D-phenylalanyl-L-isoleucyl-D-Δ-piperazyl-L-arginyl-D-(Nα-methyl)-phenylalanyl-L-prolyl]trifluoroacetate salt] (cyclo(I[dPiz(1,6-dehydro)]R[dNMeF]P[dF])), the IC50 at uterine OT receptors (setting [1]) came to 7.2 nM; on AVP-V1 sites (setting [2]), 400 nM; on AVP-V2 sites (setting [3]) it was 500 nM.
Consider `CCOc1ccc(C[C@H]2NC(=O)[C@@H]3CCCN3C(=O)[C@@H](Cc3ccccc3)NC(=O)[C@H](CC(N)=O)NC(=O)[C@@H]([C@H](C)O)NC(=O)[C@H]([C@@H](C)CC)NC2=O)cc1` [Example 99] (cyclo([dY](Et)I[dT]N[dF]P)), for which the half-maximal inhibitory concentration (IC50) at uterine OT receptors (setting [1]), at AVP-V1 sites (setting [4]) and at AVP-V2 sites (setting [5]) was more than 10000 nM in each case.
